≈ marks a conversion by molar mass, not a printed value. Where two headings read alike, the source gives them in different places.
Experiments:
[1] = system: MCF-7 breast cancer cell line; test: MTT cytotoxicity assay, MCF-7; assay type: cell-based; conditions: Homo sapiens, MCF7, read-out: IC50 (μg mL^−1) ± SD MCF7
[2] = system: MDA-MB-231 breast cancer cell line; test: MTT cytotoxicity assay, MDA-MB-231; assay type: cell-based; conditions: Homo sapiens, MDA-MB-231, read-out: IC50 (μg mL^−1) ± SD MDA-MB231
MCF-7 cells = test: Apoptosis induction in MCF-7 cells; assay type: cell-based, human; conditions: MCF-7 cells (Fig. 4)
MDA-MB-231 cells = test: Apoptosis induction in MDA-MB-231 cells; assay type: cell-based, human; conditions: MDA-MB-231 cells (Fig. 4)
AChE = AChE (Homo sapiens, UniProt P22303); test: Anticholinesterase inhibitory assay; assay type: biochemical
AChE, sequence (P22303 32-614): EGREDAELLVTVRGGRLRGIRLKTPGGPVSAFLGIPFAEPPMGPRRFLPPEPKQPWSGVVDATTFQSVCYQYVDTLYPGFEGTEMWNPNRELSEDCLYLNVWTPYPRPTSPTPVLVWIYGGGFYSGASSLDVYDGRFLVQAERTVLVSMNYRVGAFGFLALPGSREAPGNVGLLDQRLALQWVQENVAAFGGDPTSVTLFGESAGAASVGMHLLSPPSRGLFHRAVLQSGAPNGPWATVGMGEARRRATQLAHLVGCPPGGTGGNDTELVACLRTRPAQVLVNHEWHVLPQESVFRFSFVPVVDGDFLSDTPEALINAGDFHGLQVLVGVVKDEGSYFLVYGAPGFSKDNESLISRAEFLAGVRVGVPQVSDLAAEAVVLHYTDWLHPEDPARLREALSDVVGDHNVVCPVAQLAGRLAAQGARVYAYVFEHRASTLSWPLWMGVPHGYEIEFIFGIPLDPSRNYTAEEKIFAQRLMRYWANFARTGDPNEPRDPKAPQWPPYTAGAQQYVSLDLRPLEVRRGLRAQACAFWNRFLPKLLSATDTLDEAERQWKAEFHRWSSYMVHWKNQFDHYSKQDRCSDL

[3] = system: MRSA (Staphylococcus aureus ATCC 43300); test: Anti-MRSA MIC, broth microdilution; assay type: cell-based; conditions: for anti-MRSA potency compared to Linezolid: MIC comparison; for Interpretation (of MIC): MRSA, Table 3
[4] = system: MRSA (Staphylococcus aureus ATCC 43300); test: Minimum bactericidal concentration; assay type: cell-based; conditions: for Interpretation (of MBC/MIC): Table 4
MRSA biofilm = test: Antibiofilm activity, crystal violet assay; assay type: cell-based, Staphylococcus aureus
normal HDF cells = test: Apoptosis/cytotoxicity in normal HDF cells
MRSA = test: Time-kill assay against MRSA; assay type: cell-based, Staphylococcus aureus; conditions: 0-24 h
[5] = system: MCF-7 breast cancer cell line; conditions: read-out: IC50 in MCF-7; known value quoted for comparison; no reference given; cited from earlier work

| Compound | IC50 [1] [µg/mL] | IC50 [2] [µg/mL] | apoptosis induction (MCF-7 cells) | apoptosis induction (MDA-MB-231 cells) | IC50 (AChE) [nM] | anti-MRSA potency compared to Linezolid [3] | Interpretation (of MIC) [3] | MBC/MIC [4] | Interpretation (of MBC/MIC) [4] | apoptosis / cytotoxicity in normal cells (normal HDF cells) | other results |
| --- | --- | --- | --- | --- | --- | --- | --- | --- | --- | --- | --- |
| CN1C(=O)/C(=N\Nc2ncc(-c3cc4ccccc4oc3=O)s2)c2cc(Cl)ccc21 [Compound 5, (Z)-5-chloro-1-methyl-3-(2-(5-(2-oxo-2H-chromen-3-yl)thiazol-2-yl)hydrazono)indolin-2-one] | 10.8 ± 1.19 (≈ 24.8 µM) | 14.4 ± 1.89 (≈ 33.1 µM) | moderate apoptosis | moderate apoptosis | 99.8 | superior potency | Extremely potent | 5.7 | Moderate bactericidal | significantly lower cytotoxicity | inhibition at 1.3 µg/mL (MRSA biofilm; Staphylococcus aureus, MRSA, read-out: inhibition of MRSA biofilm formation): ~40%; eradication of preformed MRSA biofilms (MRSA biofilm; various concentrations (Fig. 8Z)): eradication efficiency increasing in a concentration-dependent manner |
| CCc1ccc(N2C(=O)/C(=C3/C(=O)N(C)c4ccc(Cl)cc43)NC2=S)cc1 [Compound 9, (Z)-5-chloro-3-(1-(4-ethylphenyl)-5-oxo-2-thioxoimidazolidin-4-ylidene)-1-methylindolin-2-one] | 24 ± 1.49 (≈ 60.3 µM) | 28.4 ± 2.19 (≈ 71.4 µM) |  |  | 302 | significantly less potent | Weak activity |  |  |  |  |
| CN1C(=S)N(c2ccccc2)C(=O)/C1=C1/C(=O)N(C)c2ccc(Cl)cc21 [Compound 12, (Z)-5-chloro-1-methyl-3-(3-methyl-5-oxo-1-phenyl-2-thioxoimidazolidin-4-ylidene)indolin-2-one] | 16 ± 1.15 (≈ 41.7 µM) | 27.3 ± 2.01 (≈ 71.1 µM) |  |  |  |  |  |  |  |  |  |
| COc1cccc2c1C(=O)c1c(O)c3c(c(O)c1C2=O)C[C@@](O)(C(=O)CO)C[C@@H]3O[C@H]1C[C@H](N)[C@H](O)[C@H](C)O1 [Doxorubicin, reference compound] | 25.1 ± 1.67 (≈ 46.3 µM) | 36.6 ± 2.12 (≈ 67.3 µM) |  |  |  |  |  |  |  |  |  |
| CC(=O)NC[C@H]1CN(c2ccc(N3CCOCC3)c(F)c2)C(=O)O1 [Linezolid, reference compound] |  |  |  |  |  |  |  | 17.6 | Bacteriostatic |  | time-kill outcome (MRSA): remained bacteriostatic, showing no significant kill at any time point |
| CC1(C)CCC(c2ccc(Cl)cc2)=C(CN2CCN(c3ccc(C(=O)NS(=O)(=O)c4ccc(N[C@H](CCN5CCOCC5)CSc5ccccc5)c(S(=O)(=O)C(F)(F)F)c4)cc3)CC2)C1 [Navitoclax, reference compound] |  |  | high levels of apoptosis | high levels of apoptosis |  |  |  |  |  | high levels of apoptosis | IC50 [5]: 1000 nM |

Reference: publication PMC12415548 (RSC Advances, 2025)
